The source of these data is ChEMBL document CHEMBL5325441, “Current and emerging therapies for Achondroplasia: The dawn of precision medicine” (2023).

Assay [1] relates to Bone. In words: Induction of bone regrowth in achondroplasia FVB mouse model assessed as improvement in dwarfism by measuring tibia size at 203 microg/kg, sc administered as continuous infusion for 35 days. The class given is functional. As to conditions: dose 203 µg/kg, time 35 day.
Assay [2] in a line: Induction of bone regrowth in achondroplasia Cynomolgus monkey model assessed as improvement in dwarfism by measuring tail size at 203 microg/kg, sc qd administered for 35 days. The class given is functional, Macaca fascicularis. As to conditions: dose 203 µg/kg, time 35 day.
In assay [3] the test system is Bone. In words: Induction of bone regrowth in achondroplasia FVB mouse model assessed as improvement in dwarfism by measuring spine size at 203 microg/kg, sc qd administered for 35 days. The class given is functional. As to conditions: dose 203 µg/kg, time 35 day.
In assay [4] the test system is Bone. The assay is described as follows: Induction of bone regrowth in achondroplasia FVB mouse model assessed as improvement in dwarfism by measuring tibia size at 203 microg/kg, sc qd administered for 35 days. Type of assay: functional. As to conditions: dose 203 µg/kg, time 35 day.
Assay [5] has as its system Bone. The assay is described as follows: Induction of bone regrowth in achondroplasia FVB mouse model assessed as improvement in dwarfism by measuring femur size at 203 microg/kg, sc qd administered for 35 days. The class given is functional. As to conditions: dose 203 µg/kg, time 35 day.
The test system of assay [6] is Bone. In words: Induction of bone regrowth in achondroplasia FVB mouse model assessed as improvement in dwarfism by measuring femur size at 203 microg/kg, sc administered as continuous infusion for 35 days. The class given is functional. As to conditions: dose 203 µg/kg, time 35 day.
Assay [7] deals with Bone. The assay is described as follows: Induction of bone regrowth in achondroplasia FVB mouse model assessed as improvement in dwarfism by measuring spine size at 203 microg/kg, sc administered as continuous infusion for 35 days. The class given is functional. As to conditions: dose 203 µg/kg, time 35 day.
The nature of assay [8]: Induction of bone regrowth in achondroplasia Cynomolgus monkey model assessed as improvement in dwarfism by measuring ulna size at 203 microg/kg, sc qd administered for 35 days. The class given is functional, Macaca fascicularis. As to conditions: dose 203 µg/kg, time 35 day.
In assay [9] the test system is Bone. The assay is described as follows: Induction of bone regrowth in achondroplasia mouse model assessed as improvement in dwarfism by measuring femur bone size at 800 microg/kg, sc qd administered for 21 days. As to conditions: dose 800.0 µg/kg, time 21.0 day. The class given is functional, organism-based.
The subject of assay [10] is Bone. In words: Induction of bone regrowth in achondroplasia mouse model expressing FGFR3 Y367C mutant assessed as improvement in dwarfism by measuring anterior-posterior diameter of the skull size at 240 microg/kg, sc qd administered for 21 days. Type of assay: functional, organism-based. As to conditions: dose 240.0 µg/kg, time 21.0 day.
Assay [11] relates to Bone. The assay is described as follows: Induction of bone regrowth in achondroplasia mouse model assessed as improvement in dwarfism by measuring L4-L6 spine segment size at 800 microg/kg, sc qd administered for 21 days. The class given is functional, organism-based. As to conditions: dose 800.0 µg/kg, time 21.0 day.
For assay [12], the system named is Bone. The assay is described as follows: Induction of bone regrowth in achondroplasia mouse model assessed as improvement in dwarfism by measuring anterior-posterior diameter of the skull size at 800 microg/kg, sc qd administered for 21 days. As to conditions: dose 800.0 µg/kg, time 21.0 day. Type of assay: functional, organism-based.
The subject of assay [13] is Bone. The assay is described as follows: Induction of bone regrowth in achondroplasia mouse model assessed as improvement in dwarfism by measuring tibia bone size at 800 microg/kg, sc qd administered for 21 days. As to conditions: dose 800.0 µg/kg, time 21.0 day. The class given is functional, organism-based.
Assay [14] has as its system Bone. The assay is described as follows: Induction of bone regrowth in achondroplasia mouse model assessed as improvement in dwarfism by measuring foramen magnum bone size at 800 microg/kg, sc qd administered for 21 days. The class given is functional, organism-based. As to conditions: dose 800.0 µg/kg, time 21.0 day.
Assay [15] has as its system Bone. In words: Induction of bone regrowth in achondroplasia mouse model expressing FGFR3 Y367C mutant assessed as improvement in dwarfism by measuring foramen magnum bone size at 240 microg/kg, sc qd administered for 21 days. Type of assay: functional, organism-based. As to conditions: dose 240.0 µg/kg, time 21.0 day.
Assay [16] has as its system Bone. The assay is described as follows: Induction of bone regrowth in achondroplasia mouse model expressing FGFR3 Y367C mutant assessed as improvement in dwarfism by measuring femur bone size at 240 microg/kg, sc qd administered for 21 days. The class given is functional, organism-based. As to conditions: dose 240.0 µg/kg, time 21.0 day.
Assay [17] concerns Bone. The assay is described as follows: Induction of bone regrowth in achondroplasia mouse model expressing FGFR3 Y367C mutant assessed as improvement in dwarfism by measuring tibia bone size at 240 microg/kg, sc qd administered for 21 days. The class given is functional, organism-based. As to conditions: dose 240.0 µg/kg, time 21.0 day.
The subject of assay [18] is Bone. In words: Induction of bone regrowth in achondroplasia mouse model expressing FGFR3 Y367C mutant assessed as improvement in dwarfism by measuring tail bone size at 240 microg/kg, sc qd administered for 21 days. Type of assay: functional, organism-based. As to conditions: dose 240.0 µg/kg, time 21.0 day.
Assay [19] has as its system Bone. The assay is described as follows: Induction of bone regrowth in achondroplasia mouse model assessed as improvement in dwarfism by measuring tail bone size at 800 microg/kg, sc qd administered for 21 days. The class given is functional, organism-based. As to conditions: dose 800.0 µg/kg, time 21.0 day.
The test system of assay [20] is Bone. In words: Induction of bone regrowth in achondroplasia mouse model expressing FGFR3 Y367C mutant assessed as improvement in dwarfism by measuring L4-L6 spine segment size at 240 microg/kg, sc qd administered for 21 days. Type of assay: functional, organism-based. As to conditions: dose 240.0 µg/kg, time 21.0 day.
Assay [21] deals with Bone. The assay is described as follows: Induction of bone regrowth in achondroplasia C57BL/6 mouse model expressing FGFR3 Y367C mutant assessed as improvement in dwarfism by measuring humerus bone size at 0.5 mg/kg, sc qd administered for 15 days. As to conditions: time 15 day. The class given is functional.
Assay [22] has as its system Bone. The assay is described as follows: Induction of bone regrowth in achondroplasia C57BL/6 mouse model expressing FGFR3 Y367C mutant assessed as improvement in dwarfism by measuring tibia bone size at 0.5 mg/kg, sc qd administered for 15 days. The class given is functional. As to conditions: time 15 day.
For assay [23], the system named is Bone. In words: Induction of bone regrowth in achondroplasia C57BL/6 mouse model expressing FGFR3 Y367C mutant assessed as improvement in dwarfism by measuring femur bone size at 2 mg/kg, sc administered for 15 days. As to conditions: time 15 day. Type of assay: functional.
For assay [24], the system named is Bone. The assay is described as follows: Induction of bone regrowth in achondroplasia C57BL/6 mouse model expressing FGFR3 Y367C mutant assessed as improvement in dwarfism by measuring humerus bone size at 2 mg/kg, sc administered for 15 days. The class given is functional. As to conditions: time 15 day.
The test system of assay [25] is Bone. In words: Induction of bone regrowth in achondroplasia C57BL/6 mouse model expressing FGFR3 Y367C mutant assessed as improvement in dwarfism by measuring ulna bone size at 2 mg/kg, sc administered for 15 days. Type of assay: functional. As to conditions: time 15 day.
The subject of assay [26] is Bone. In words: Induction of bone regrowth in achondroplasia C57BL/6 mouse model expressing FGFR3 Y367C mutant assessed as improvement in dwarfism by measuring tibia bone size at 2 mg/kg, sc administered for 15 days. Type of assay: functional. As to conditions: time 15 day.
The test system of assay [27] is Bone. The assay is described as follows: Induction of bone regrowth in achondroplasia C57BL/6 mouse model expressing FGFR3 Y367C mutant assessed as improvement in dwarfism by measuring femur bone size at 0.5 mg/kg, sc qd administered for 15 days. Type of assay: functional. As to conditions: time 15 day.
The test system of assay [28] is Bone. The assay is described as follows: Induction of bone regrowth in achondroplasia C57BL/6 mouse model expressing FGFR3 Y367C mutant assessed as improvement in dwarfism by measuring anterior-posterior diameter of the skull size at 2 mg/kg, sc administered for 15 days. Type of assay: functional. As to conditions: time 15 day.
The test system of assay [29] is Bone. In words: Induction of bone regrowth in achondroplasia C57BL/6 mouse model expressing FGFR3 Y367C mutant assessed as improvement in dwarfism by measuring ulna bone size at 0.5 mg/kg, sc qd administered for 15 days. The class given is functional. As to conditions: time 15 day.
Assay [30] relates to Bone. The assay is described as follows: Induction of bone regrowth in achondroplasia C57BL/6 mouse model expressing FGFR3 Y367C mutant assessed as improvement in dwarfism by measuring tail bone size at 2 mg/kg, sc administered for 15 days. Type of assay: functional. As to conditions: time 15 day.
In assay [31] the test system is Bone. The assay is described as follows: Induction of bone regrowth in achondroplasia C57BL/6 mouse model expressing FGFR3 Y367C mutant assessed as improvement in dwarfism by measuring L4-L6 spine segment size at 2 mg/kg, sc administered for 15 days. The class given is functional. As to conditions: time 15 day.
The test system of assay [32] is Bone. In words: Induction of bone regrowth in achondroplasia C57BL/6 mouse model expressing FGFR3 Y367C mutant assessed as improvement in dwarfism by measuring foramen magnum bone size at 2 mg/kg, sc administered for 15 days. The class given is functional. As to conditions: time 15 day.

Active and inactive are the calls of the source. No cut-off for these calls is given here.

In the case of `CC[C@H](C)[C@@H]1NC(=O)[C@H](CCCNC(=N)N)NC(=O)[C@H](CC(=O)O)NC(=O)[C@H](CC(C)C)NC(=O)[C@H](CCCCN)NC(=O)[C@H](CC(C)C)NC(=O)CNC(=O)[C@H](Cc2ccccc2)NC(=O)[C@@H](NC(=O)CNC(=O)[C@H](CCCCN)NC(=O)[C@H](CO)NC(=O)[C@H](CC(C)C)NC(=O)CNC(=O)[C@H](CCCCN)NC(=O)[C@H](CCCCN)NC(=O)[C@H](CC(N)=O)NC(=O)[C@H](C)NC(=O)CNC(=O)[C@H](CCCCN)NC(=O)[C@H](Cc2ccc(O)cc2)NC(=O)[C@H](CCCCN)NC(=O)[C@H](CCCNC(=N)N)NC(=O)[C@H](C)NC(=O)[C@H](CC(N)=O)NC(=O)[C@@H]2CCCN2C(=O)[C@H](Cc2c[nH]cn2)NC(=O)[C@H](CCC(=O)O)NC(=O)[C@H](CCC(N)=O)NC(=O)[C@@H](N)CC(C)C)CSSC[C@@H](C(=O)O)NC(=O)CNC(=O)[C@H](CC(C)C)NC(=O)CNC(=O)[C@H](CO)NC(=O)[C@H](CCSC)NC(=O)[C@H](CO)NC(=O)CNC1=O`, the Activity with Bone [1] was found to be 12.2%; in assay [2], 9%; in the assay on Bone [3], 11.3%; in the assay on Bone [4], 4%; with Bone [5] it was 5.5%; with Bone [6], 7.1%. In addition, the Activity came to 25% in the assay with Bone [7] and 2.7% in [8].
In the case of VOSORITIDE, the Activity stood at 5.2% with Bone [9]; 2.9% in the assay with Bone [10]; 3.3% with Bone [11]; 4.8% in the assay with Bone [12]; 6.6% in the assay with Bone [13]; 3.4% in the assay with Bone [16]. Moreover, the Activity worked out at 3.7% in the assay with Bone [17], 8% with Bone [19] and 2.8% in the assay with Bone [20]. The result in the assay on Bone [14], in the assay with Bone [15] and with Bone [18] was inactive.
Turning to `CCN1CCN(c2ccc(Nc3cc(N(C)C(=O)Nc4c(Cl)c(OC)cc(OC)c4Cl)ncn3)cc2)CC1` [INFIGRATINIB], the Activity in the assay on Bone [21] came out at 7%; in the assay with Bone [22], 16%; in the assay with Bone [23] it was 20.9%; in the assay on Bone [24] it was 11.9%; in the assay with Bone [25] it was 22.3%; in the assay on Bone [26] it was 32.6%. In addition, the Activity in the assay with Bone [27] is recorded as 11%; in the assay on Bone [28], 20.9%; in the assay with Bone [29] it was 11%; in the assay with Bone [30], 26.5%; in the assay with Bone [31], 12.1%; in the assay with Bone [32] it was 16.8%.
